Calls of active or inactive are those of the source. The rule behind the calls is not given here.
What was measured:
Assay in all cases: CYP450 and receptor off-target profile – biochemical, Ricerca HitProfilingScreen, selectivity assay for GPR7 antagonist project, late-stage follow-up (AID 504401)
Cannabinoid CB1 = conditions: Ricerca radioligand binding and CYP450 panel, at 10 µM, hits give high values
[1] = system: Norepinephrine Transporter (NET); conditions: Ricerca radioligand binding and CYP450 panel, at 10 µM, hits give high values
Nicotinic Acetylcholine = conditions: Ricerca radioligand binding and CYP450 panel, at 10 µM, hits give high values
[2] = target: 5-hydroxytryptamine receptor 2B (Homo sapiens) (UniProt P41595); conditions: Ricerca radioligand binding and CYP450 panel; Serotonin (5-Hydroxytryptamine) 5-HT2B; at 10 µM; hits give high values
Chain of 5-hydroxytryptamine receptor 2B (Homo sapiens) (P41595 whole entry, looked up): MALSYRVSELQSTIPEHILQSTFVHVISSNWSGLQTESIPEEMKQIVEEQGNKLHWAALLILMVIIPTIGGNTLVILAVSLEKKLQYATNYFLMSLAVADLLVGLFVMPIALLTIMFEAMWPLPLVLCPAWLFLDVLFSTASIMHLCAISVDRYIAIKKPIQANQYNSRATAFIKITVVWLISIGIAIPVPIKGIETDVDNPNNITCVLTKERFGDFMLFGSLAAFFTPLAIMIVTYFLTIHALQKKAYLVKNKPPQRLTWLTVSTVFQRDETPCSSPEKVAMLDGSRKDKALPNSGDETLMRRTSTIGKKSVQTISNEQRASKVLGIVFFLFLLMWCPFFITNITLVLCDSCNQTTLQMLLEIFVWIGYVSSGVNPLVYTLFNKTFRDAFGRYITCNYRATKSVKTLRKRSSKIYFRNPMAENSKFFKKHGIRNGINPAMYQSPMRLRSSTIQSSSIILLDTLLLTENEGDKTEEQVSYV

Dopamine D2S = conditions: Ricerca radioligand binding and CYP450 panel, at 10 µM, hits give high values
Histamine H1 = conditions: Ricerca radioligand binding and CYP450 panel, at 10 µM, hits give high values
[3] = target: Muscarinic acetylcholine receptor M3 (Homo sapiens) (UniProt P20309); conditions: Ricerca radioligand binding and CYP450 panel, at 10 µM, hits give high values
Chain of Muscarinic acetylcholine receptor M3 (Homo sapiens) (P20309 whole entry, looked up): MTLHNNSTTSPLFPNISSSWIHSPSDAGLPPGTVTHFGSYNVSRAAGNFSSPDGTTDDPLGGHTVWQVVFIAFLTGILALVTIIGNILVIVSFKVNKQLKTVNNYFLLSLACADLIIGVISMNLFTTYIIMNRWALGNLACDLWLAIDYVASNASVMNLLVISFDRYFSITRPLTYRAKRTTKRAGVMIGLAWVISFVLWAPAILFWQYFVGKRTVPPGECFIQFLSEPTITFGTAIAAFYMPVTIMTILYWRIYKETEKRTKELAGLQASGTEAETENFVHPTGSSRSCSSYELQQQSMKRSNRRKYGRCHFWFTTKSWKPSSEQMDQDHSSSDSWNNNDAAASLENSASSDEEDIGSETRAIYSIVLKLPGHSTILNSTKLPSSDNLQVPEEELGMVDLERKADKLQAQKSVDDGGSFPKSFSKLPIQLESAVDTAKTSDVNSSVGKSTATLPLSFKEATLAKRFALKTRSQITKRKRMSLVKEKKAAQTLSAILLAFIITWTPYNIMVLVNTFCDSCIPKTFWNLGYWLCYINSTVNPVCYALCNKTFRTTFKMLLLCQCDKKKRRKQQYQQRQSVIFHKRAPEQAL

GABAA = conditions: Ricerca radioligand binding and CYP450 panel, central, at 10 µM, hits give high values
[4] = target: Cytochrome P450 2D6 (Homo sapiens) (UniProt P10635); conditions: Ricerca radioligand binding and CYP450 panel; CYP450 2D6; at 10 µM; hits give high values
Chain of Cytochrome P450 2D6 (Homo sapiens) (P10635 whole entry, looked up): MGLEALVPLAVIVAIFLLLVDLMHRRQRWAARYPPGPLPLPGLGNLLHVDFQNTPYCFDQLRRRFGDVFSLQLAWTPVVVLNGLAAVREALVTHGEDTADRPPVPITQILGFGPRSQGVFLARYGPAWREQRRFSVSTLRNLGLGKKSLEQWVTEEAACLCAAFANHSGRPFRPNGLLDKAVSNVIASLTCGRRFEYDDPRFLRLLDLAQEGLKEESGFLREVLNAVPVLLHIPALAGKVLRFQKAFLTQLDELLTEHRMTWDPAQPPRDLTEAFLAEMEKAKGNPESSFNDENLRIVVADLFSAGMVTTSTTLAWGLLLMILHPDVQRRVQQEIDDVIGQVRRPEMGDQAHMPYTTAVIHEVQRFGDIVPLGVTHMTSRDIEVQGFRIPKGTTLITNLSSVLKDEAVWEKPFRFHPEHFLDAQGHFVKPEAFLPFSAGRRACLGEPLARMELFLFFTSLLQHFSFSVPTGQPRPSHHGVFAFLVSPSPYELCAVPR

Adenosine A1 = conditions: Ricerca radioligand binding and CYP450 panel, at 10 µM, hits give high values
Adrenergic beta1 = conditions: Ricerca radioligand binding and CYP450 panel, at 10 µM, hits give high values
Prostanoid EP4 = conditions: Ricerca radioligand binding and CYP450 panel, at 10 µM, hits give high values
[5] = target: Beta-2 adrenergic receptor (Homo sapiens) (UniProt P07550); conditions: Ricerca radioligand binding and CYP450 panel; Adrenergic beta2; at 10 µM; hits give high values
Chain of Beta-2 adrenergic receptor (Homo sapiens) (P07550 whole entry, looked up): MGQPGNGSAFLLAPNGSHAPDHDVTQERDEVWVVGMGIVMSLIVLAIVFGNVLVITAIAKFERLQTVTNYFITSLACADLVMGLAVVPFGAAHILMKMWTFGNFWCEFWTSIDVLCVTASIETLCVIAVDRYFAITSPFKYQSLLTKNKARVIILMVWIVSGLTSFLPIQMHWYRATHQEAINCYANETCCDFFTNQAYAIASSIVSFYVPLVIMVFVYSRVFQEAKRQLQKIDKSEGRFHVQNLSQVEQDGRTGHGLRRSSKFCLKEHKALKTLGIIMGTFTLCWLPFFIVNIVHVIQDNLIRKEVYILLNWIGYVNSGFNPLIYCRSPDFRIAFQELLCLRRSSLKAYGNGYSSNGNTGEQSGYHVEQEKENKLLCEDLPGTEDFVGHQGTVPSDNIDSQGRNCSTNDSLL

Opiate mu (OP3, MOP) = conditions: Ricerca radioligand binding and CYP450 panel, at 10 µM, hits give high values
Adrenergic alpha1A = conditions: Ricerca radioligand binding and CYP450 panel, at 10 µM, hits give high values
Calcium Channel L-Type = conditions: Ricerca radioligand binding and CYP450 panel, Dihydropyridine site, at 10 µM, hits give high values
[6] = target: Cytochrome P450 2C9 (Homo sapiens) (UniProt P11712); conditions: Ricerca radioligand binding and CYP450 panel; CYP450 2C9; at 10 µM; hits give high values
Chain of Cytochrome P450 2C9 (Homo sapiens) (P11712 whole entry, looked up): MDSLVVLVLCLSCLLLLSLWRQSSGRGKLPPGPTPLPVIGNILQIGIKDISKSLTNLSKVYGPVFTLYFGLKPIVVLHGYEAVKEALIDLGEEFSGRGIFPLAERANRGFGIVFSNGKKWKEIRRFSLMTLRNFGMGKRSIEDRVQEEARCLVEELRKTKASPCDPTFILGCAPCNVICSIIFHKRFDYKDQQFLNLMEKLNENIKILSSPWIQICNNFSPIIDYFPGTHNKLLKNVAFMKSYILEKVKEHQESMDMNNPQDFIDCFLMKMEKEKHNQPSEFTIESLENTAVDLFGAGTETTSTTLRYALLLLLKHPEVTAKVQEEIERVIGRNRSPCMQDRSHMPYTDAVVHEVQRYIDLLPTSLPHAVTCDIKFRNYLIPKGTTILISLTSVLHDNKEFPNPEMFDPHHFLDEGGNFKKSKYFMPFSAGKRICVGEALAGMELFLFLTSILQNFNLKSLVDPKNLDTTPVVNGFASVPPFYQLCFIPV

[7] = system: Alpha-2A adrenergic receptor (Homo sapiens) + Histamine H1 receptor (Homo sapiens) + Mu-type opioid receptor (Homo sapiens); conditions: Ricerca radioligand binding and CYP450 panel; at 10 µM; hits give high values
Adenosine A2A = conditions: Ricerca radioligand binding and CYP450 panel, at 10 µM, hits give high values
Adrenergic alpha1B = conditions: Ricerca radioligand binding and CYP450 panel, at 10 µM, hits give high values
[8] = target: Voltage-gated inwardly rectifying potassium channel KCNH2 (Homo sapiens) (UniProt Q12809); conditions: Ricerca radioligand binding and CYP450 panel; Potassium Channel hERG; at 10 µM; hits give high values
Chain of Voltage-gated inwardly rectifying potassium channel KCNH2 (Homo sapiens) (Q12809 whole entry, looked up): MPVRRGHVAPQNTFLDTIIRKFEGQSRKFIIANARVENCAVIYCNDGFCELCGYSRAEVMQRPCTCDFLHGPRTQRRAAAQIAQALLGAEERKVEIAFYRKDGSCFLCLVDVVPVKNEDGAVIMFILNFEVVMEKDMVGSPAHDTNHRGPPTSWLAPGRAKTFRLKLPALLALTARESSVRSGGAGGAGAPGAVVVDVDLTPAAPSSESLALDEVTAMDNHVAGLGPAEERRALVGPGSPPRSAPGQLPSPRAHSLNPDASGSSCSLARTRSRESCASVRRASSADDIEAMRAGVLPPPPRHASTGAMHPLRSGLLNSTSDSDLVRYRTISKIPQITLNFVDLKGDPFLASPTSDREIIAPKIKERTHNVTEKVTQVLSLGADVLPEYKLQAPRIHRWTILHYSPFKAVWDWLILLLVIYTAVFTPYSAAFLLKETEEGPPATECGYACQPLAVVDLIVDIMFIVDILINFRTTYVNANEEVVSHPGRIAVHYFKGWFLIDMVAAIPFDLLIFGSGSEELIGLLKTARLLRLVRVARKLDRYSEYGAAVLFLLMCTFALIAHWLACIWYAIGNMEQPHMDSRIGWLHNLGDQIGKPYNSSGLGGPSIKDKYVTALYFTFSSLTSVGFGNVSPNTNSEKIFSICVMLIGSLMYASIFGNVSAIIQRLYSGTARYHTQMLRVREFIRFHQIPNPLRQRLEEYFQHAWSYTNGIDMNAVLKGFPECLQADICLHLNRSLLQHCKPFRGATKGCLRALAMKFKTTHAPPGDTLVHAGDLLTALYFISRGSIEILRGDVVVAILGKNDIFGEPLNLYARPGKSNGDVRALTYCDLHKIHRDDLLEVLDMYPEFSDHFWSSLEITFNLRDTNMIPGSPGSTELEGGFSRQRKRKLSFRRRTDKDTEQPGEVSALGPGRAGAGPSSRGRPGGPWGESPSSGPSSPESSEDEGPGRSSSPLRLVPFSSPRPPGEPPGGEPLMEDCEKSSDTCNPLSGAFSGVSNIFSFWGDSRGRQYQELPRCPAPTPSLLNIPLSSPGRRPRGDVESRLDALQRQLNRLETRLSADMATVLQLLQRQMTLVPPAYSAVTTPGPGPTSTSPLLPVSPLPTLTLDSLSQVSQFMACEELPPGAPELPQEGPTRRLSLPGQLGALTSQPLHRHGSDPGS

[9] = target: Alpha-2A adrenergic receptor (Homo sapiens) (UniProt P08913); conditions: Ricerca radioligand binding and CYP450 panel; Adrenergic alpha2A; at 10 µM; hits give high values
Glutamate NMDA = conditions: Ricerca radioligand binding and CYP450 panel, Phencyclidine site, at 10 µM, hits give high values
Sodium Channel = conditions: Ricerca radioligand binding and CYP450 panel, site 2, at 10 µM, hits give high values
[10] = target: Cytochrome P450 3A4 (Homo sapiens) (UniProt P08684); conditions: Ricerca radioligand binding and CYP450 panel; CYP450 3A4; at 10 µM; hits give high values
Chain of Cytochrome P450 3A4 (Homo sapiens) (P08684 whole entry, looked up): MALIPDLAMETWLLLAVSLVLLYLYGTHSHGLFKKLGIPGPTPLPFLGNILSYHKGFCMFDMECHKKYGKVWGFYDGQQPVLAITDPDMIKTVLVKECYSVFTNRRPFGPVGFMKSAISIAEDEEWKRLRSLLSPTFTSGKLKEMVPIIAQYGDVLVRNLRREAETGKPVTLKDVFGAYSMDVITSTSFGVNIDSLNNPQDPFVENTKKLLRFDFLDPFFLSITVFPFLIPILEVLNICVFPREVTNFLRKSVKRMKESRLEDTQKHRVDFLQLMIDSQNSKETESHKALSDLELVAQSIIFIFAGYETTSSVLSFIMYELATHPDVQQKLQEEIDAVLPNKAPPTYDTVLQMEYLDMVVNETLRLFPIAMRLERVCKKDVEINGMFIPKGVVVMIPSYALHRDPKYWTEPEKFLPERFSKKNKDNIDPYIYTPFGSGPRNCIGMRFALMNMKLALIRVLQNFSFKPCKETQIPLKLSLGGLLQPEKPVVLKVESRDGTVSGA

[11] = target: Cytochrome P450 1A2 (Homo sapiens) (UniProt P05177); conditions: Ricerca radioligand binding and CYP450 panel; CYP450 1A2; at 10 µM; hits give high values
Sigma 1 = conditions: Ricerca radioligand binding and CYP450 panel, at 10 µM, hits give high values
[12] = target: D(1A) dopamine receptor (Homo sapiens) (UniProt P21728); conditions: Ricerca radioligand binding and CYP450 panel; Dopamine D1; at 10 µM; hits give high values
[13] = target: Muscarinic acetylcholine receptor M2 (Homo sapiens) (UniProt P08172); conditions: Ricerca radioligand binding and CYP450 panel, at 10 µM, hits give high values
Chain of Muscarinic acetylcholine receptor M2 (Homo sapiens) (P08172 whole entry, looked up): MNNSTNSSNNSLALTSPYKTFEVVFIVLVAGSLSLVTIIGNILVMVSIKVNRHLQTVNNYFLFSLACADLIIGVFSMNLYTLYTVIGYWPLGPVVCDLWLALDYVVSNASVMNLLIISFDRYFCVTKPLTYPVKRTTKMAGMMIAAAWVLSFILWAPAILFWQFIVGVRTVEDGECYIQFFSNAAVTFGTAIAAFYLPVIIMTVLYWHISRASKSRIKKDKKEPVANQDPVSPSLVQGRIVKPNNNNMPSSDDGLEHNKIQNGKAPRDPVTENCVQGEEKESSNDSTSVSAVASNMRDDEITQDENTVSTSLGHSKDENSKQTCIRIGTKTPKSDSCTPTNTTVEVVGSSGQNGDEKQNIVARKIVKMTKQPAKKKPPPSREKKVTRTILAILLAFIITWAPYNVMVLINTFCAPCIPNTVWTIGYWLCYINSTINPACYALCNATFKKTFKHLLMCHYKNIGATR

CYP450 2C19 = conditions: Ricerca radioligand binding and CYP450 panel, at 10 µM, hits give high values

COc1ccc(Oc2c(Cl)cnn(-c3cc(C)cc(C)c3)c2=O)cc1
inhibition (Cannabinoid CB1): 25% (inactive) | inhibition [1]: 47% (inactive) | inhibition (Nicotinic Acetylcholine): -22% (inactive) | inhibition [2]: 8% (inactive) | inhibition (Dopamine D2S): 13% (inactive) | inhibition (Histamine H1): 16% (inactive) | inhibition [3]: 0% (inactive) | inhibition (GABAA; Flunitrazepam site): -1% (inactive) | inhibition (GABAA; Muscimol site): 4% (inactive) | inhibition [4]: 16% (inactive) | inhibition (Adenosine A1): 19% (inactive) | inhibition (Adrenergic beta1): 13% (inactive) | inhibition (Prostanoid EP4): 2% (inactive) | inhibition [5]: -2% (inactive) | inhibition (Opiate mu (OP3, MOP)): -7% (inactive) | inhibition (Adrenergic alpha1A): 2% (inactive) | inhibition (Calcium Channel L-Type): 26% (inactive) | inhibition [6]: 5% (inactive) | inhibition [7]: -3% (inactive) | inhibition (Adenosine A2A): 14% (inactive) | inhibition (Adrenergic alpha1B): 3% (inactive) | inhibition [8]: 13% (inactive) | inhibition [9]: 8% (inactive) | inhibition (Glutamate NMDA): -3% (inactive) | inhibition (Sodium Channel): 23% (inactive) | inhibition [10]: 53% | inhibition [11]: 11% (inactive) | inhibition (Sigma 1): -4% (inactive) | inhibition [12]: 5% (inactive) | inhibition [13]: 2% (inactive) | inhibition (CYP450 2C19): -3% (inactive)

Source: PubChem BioAssay AID504401 (The Scripps Research Institute Molecular Screening Center, 2011)
